# Assays:
# LX-2 = assay: Antiproliferative activity against GPC3-negative human LX-2 cells assessed as cytotoxicity measured after 72 hrs by MTT assay; type: functional, cell-based; details: LX-2, 72 h
# HeLa = assay: Antiproliferative activity against GPC3-negative human HeLa cells assessed as cytotoxicity measured after 72 hrs by MTT assay; type: functional, cell-based
# [1] = Toxicity in female BALB/c mouse xenografted with human Huh-7 cells assessed as pathological change in liver tissue at 2 mg/kg, iv total 4 doses measured on day 17 by hematoxylin and eosin (H and E) staining analysis; type: organism-based; details: in vivo, 408 h, time 17 day
# [2] = Plasma stability in human plasma assessed as half life at 500 uM by LC-MS/MS analysis; type: ADME, cell-free
# [3] = Plasma stability in human plasma assessed as compound remaining at 500 uM measured after 8 hrs by LC-MS/MS analysis relative to control; type: ADME, cell-free; details: read-out: Stability
# [4] = Toxicity in female BALB/c mouse xenografted with human Huh-7 cells assessed as pathological change in liver tissue at 1 mg/kg, iv followed by irradiated with 2 Gy for 2 consecutive days, once a week for 3 weeks measured on day 22; type: organism-based; details: in vivo, 528 h, time 22 day
# [5] = Toxicity in female BALB/c mouse xenografted with human Huh-7 cells assessed as pathological change in lung tissue at 1 mg/kg, iv followed by irradiated with 2 Gy for 2 consecutive days, once a week for 3 weeks measured on day 22; type: organism-based; details: in vivo, 528 h, time 22 day
# Hep 3B2 = assay: Antiproliferative activity against GPC3-positive human Hep3B cells assessed as cytotoxicity measured after 72 hrs by MTT assay; type: functional, cell-based
# [6] = Plasma stability in human plasma assessed as compound remaining at 500 uM measured after 48 hrs by LC-MS/MS analysis relative to control; type: ADME, cell-free; details: read-out: Stability
# [7] = Toxicity in female BALB/c mouse xenografted with human Huh-7 cells assessed as pathological change in kidney tissue at 2 mg/kg, iv total 4 doses measured on day 17 by hematoxylin and eosin (H and E) staining analysis; type: organism-based; details: in vivo, 408 h, time 17 day
# [8] = Toxicity in female BALB/c mouse xenografted with human Huh-7 cells assessed as pathological change in lung tissue at 2 mg/kg, iv total 4 doses measured on day 17 by hematoxylin and eosin (H and E) staining analysis; type: organism-based; details: in vivo, 408 h, time 17 day
# [9] = Plasma stability in mouse plasma assessed as half life at 500 uM by LC-MS/MS analysis; type: ADME, cell-free
# [10] = Toxicity in female BALB/c mouse xenografted with human Huh-7 cells assessed as body weight change at 0.5 to 2 mg/kg, iv total 4 doses measured on day 17; type: organism-based; details: in vivo, 408 h, dose 0.5-2 mg/kg, time 17 day
# [11] = Stability in PBS at 500 uM measured up to 48 hrs by LC-MS/MS analysis; type: physicochemical; details: buffer
# [12] = Toxicity in female BALB/c mouse xenografted with human Huh-7 cells assessed as pathological change in kidney tissue at 1 mg/kg, iv followed by irradiated with 2 Gy for 2 consecutive days, once a week for 3 weeks measured on day 22; type: organism-based; details: in vivo, 528 h, time 22 day
# [13] = Toxicity in female BALB/c mouse xenografted with human Huh-7 cells assessed as pathological change in spleen tissue at 2 mg/kg, iv total 4 doses measured on day 17 by hematoxylin and eosin (H and E) staining analysis; type: organism-based; details: in vivo, 408 h, time 17 day
# [14] = Toxicity in female BALB/c mouse xenografted with human Huh-7 cells assessed as pathological change in heart tissue at 2 mg/kg, iv total 4 doses measured on day 17 by hematoxylin and eosin (H and E) staining analysis; type: organism-based; details: in vivo, 408 h, time 17 day
# [15] = Toxicity in female BALB/c mouse xenografted with human Huh-7 cells assessed as pathological change in heart tissue at 1 mg/kg, iv followed by irradiated with 2 Gy for 2 consecutive days, once a week for 3 weeks measured on day 22; type: organism-based; details: in vivo, 528 h, time 22 day
# [16] = Toxicity in female BALB/c mouse xenografted with human Huh-7 cells assessed as body weight change at 1 mg/kg, iv followed by irradiated with 2 Gy for 2 consecutive days, once a week for 3 weeks measured on day 22; type: organism-based; details: in vivo, 528 h, time 22 day
# [17] = Plasma stability in mouse plasma assessed as compound remaining at 500 uM measured after 8 hrs by LC-MS/MS analysis relative to control; type: ADME, cell-free; details: read-out: Stability
# [18] = Toxicity in female BALB/c mouse xenografted with human Huh-7 cells assessed as pathological change in spleen tissue at 1 mg/kg, iv followed by irradiated with 2 Gy for 2 consecutive days, once a week for 3 weeks measured on day 22; type: organism-based; details: in vivo, 528 h, time 22 day
# Huh-7 = assay: Antiproliferative activity against GPC3-positive human Huh-7 cells assessed as cytotoxicity measured after 72 hrs by MTT assay; type: functional, cell-based; details: Huh-7, 72 h
# Cathepsin B = Cathepsin B (Homo sapiens, UniProt P07858); assay: Drug metabolism assessed as human cathepsin B-mediated monomethyl auristatin E release in HEK293 cells at pH 5.5 buffer measured after 30 mins by LC-MS/MS analysis; type: ADME, cell-based; details: hek293, pH 5.5, 0.5 h
smiles,measurement,setting,value
CC[C@H](C)[C@@H]([C@@H](CC(=O)N1CCC[C@H]1[C@H](OC)[C@@H](C)C(=O)N[C@H](C)[C@@H](O)c1ccccc1)OC)N(C)C(=O)[C@@H](NC(=O)[C@H](C(C)C)N(C)C(=O)OCc1ccc(NC(=O)[C@H](CCCNC(N)=O)NC(=O)[C@@H](NC(=O)CCCCCN2C(=O)CC(SC[C@H](N)C(=O)N[C@@H](CO)C(=O)N[C@@H](CC(N)=O)C(=O)N[C@@H](CC(=O)O)C(=O)N[C@@H](CCCNC(=N)N)C(=O)N3CCC[C@H]3C(=O)N3CCC[C@H]3C(=O)N[C@@H](CC(N)=O)C(=O)N[C@H](C(=O)N[C@@H](CC(C)C)C(=O)N[C@@H](CCC(N)=O)C(=O)N[C@@H](CCCCN)C(=O)N[C@@H](CCCNC(=N)N)C(N)=O)[C@@H](C)CC)C2=O)C(C)C)cc1)C(C)C (stereo partly drawn),IC50,LX-2,> 100 nM
same,IC50,HeLa,> 100 nM
same,Activity,[1],Non-toxic
same,half-life at 500 µM,[2],8.8 h
same,"remaining at 8 h, 500 µM",[3],57.2%
same,Activity,[4],Non-toxic
same,Activity,[5],Non-toxic
same,IC50,Hep 3B2,12.2 nM
same,"remaining at 48 h, 500 µM",[6],25.3%
same,Activity,[7],Non-toxic
same,Activity,[8],Non-toxic
same,half-life at 500 µM,[9],4 h
same,Activity,[10],Non-toxic
same,Stability,[11],Stable
same,Activity,[12],Non-toxic
same,Activity,[13],Non-toxic
same,Activity,[14],Non-toxic
same,Activity,[15],Non-toxic
same,Activity,[16],Non-toxic
same,"remaining at 8 h, 500 µM",[17],19.9%
same,Activity,[18],Non-toxic
same,IC50,Huh-7,1.91 nM
same,Drug metabolism,Cathepsin B,metabolite_detected

# Source: ChEMBL document CHEMBL6182945, “MMAE-Based Peptide-Drug Conjugates Targeting GPC3 for Precision Chemoradiotherapy in Hepatocellular Carcinoma” (J Med Chem, 2025)
